Patent US20120148637A1, “NANOPARTICULATE OLMESARTAN MEDOXOMIL COMPOSITIONS, PROCESS FOR THE PREPARATION THEREOF AND PHARMACEUTICAL COMPOSITIONS CONTAINING THEM” (priority 2009, published 2012)

Legend:
[1] = rat, in vivo, po, 20 mg/kg
Method: The single oral dose of reference Olmesartan Medoxomil was 20 mg/kg, and that of nanostructured Olmesartan Medoxomil formulation was 75.8 mg/kg which corresponds to 20 mg/kg active agent. Both test substances were administered via gastric tube in a dosing volume of 5 ml/kg. The vehicle of the test items was sterile 0.9% NaCl solution supplemented with 0.25% methylcellulose and the suspension was kept homogenous by continuous stirring during treatment in order to minimize the error resulting from the sedimentation.
Male Wistar rats (purchased from Laboratory Animal Center, University of Szeged) were maintained on a standard pellet rodent diet (Bioplan Ltd, Isaszeg, Hungary) under temperature and light-controlled conditions with tap water available ad libitum. The acclimatization period was at least 4 days. Rats were randomized into groups of 6 and each group was used for blood sampling at different time period after Olmesartan Medoxomil treatment. All animals were fasting for 16 hours before oral treatment. […]
An aliquot of 200 μl serum was combined with 20 μl of internal standard working solution and 1.2 ml methanol for protein precipitation. […] Serum Olmesartan concentrations were determined using a standard curve set up from Olmesartan prepared from Olmesartan Medoxomil by enzymatic hydrolysis. […]

[2] = cited from earlier work
[3] = cited from earlier work; remark: listed apart in the source
[4] = cited from earlier work; remark: listed apart in the source
[5] = rats; cited from earlier work

Area under the serum concentration curve between 15 and 360 min (AUC15-360 min) [1]	tmax [1]	SMILES	solubility in methanol ([2]; methanol)	solubility in water ([2]; water)	bound to plasma proteins [3]	absolute bioavailability ([4]; in vivo)	effect of food on bioavailability ([4]; in vivo)	renal clearance ([4]; in vivo)	terminal elimination half-life ([4]; in vivo)	total plasma clearance ([4]; in vivo)	accumulation in plasma ([4]; once-daily dosing)	crossing of the blood-brain barrier [5]	distribution to milk [5]	passage across the placental barrier [5]
382.5 µg·min/mL	2 h	CCCc1nc(C(C)(C)O)c(C(=O)OCc2oc(=O)oc2C)n1Cc1ccc(-c2ccccc2-c2nnn[nH]2)cc1 [Olmesartan Medoxomil, 2,3-dihydroxy-2-butenyl 4-(1-hydroxy-1-methylethyl)-2-propyl-1-[p-(o-1H-tetrazol-5-ylphenyl)benzyl]imidazole-5-carboxylate, cyclic 2,3-carbonate]	sparingly soluble	practically insoluble	–	–	–	–	–	–	–	–	–	–
–	–	CCCc1nc(C(C)(C)O)c(C(=O)O)n1Cc1ccc(-c2ccccc2-c2nnn[nH]2)cc1 [Olmesartan]	–	–	99%	approximately 26%	Food does not affect the bioavailability	0.6 L/h	approximately 13 hours	1.3 L/h	no accumulation in plasma	crossed the blood-brain barrier poorly, if at all	distributed to milk at low levels	passed across the placental barrier
